Reference: ChEMBL document CHEMBL1201862, “PubChem BioAssay data set” (2004)
Calls of active or inactive are those of the source.

Experiments:
[1] = target: T1, Carboxy-terminal domain RNA polymerase II polypeptide A small phosphatase 1 (Homo sapiens, UniProt Q9GZU7); experiment: CTDSP1 inhibitors, concentration-response, biochemical, absorbance readout, ultra-high-throughput screen actives (AID 540297); assay type: functional
T1 sequence (Q9GZU7 whole entry): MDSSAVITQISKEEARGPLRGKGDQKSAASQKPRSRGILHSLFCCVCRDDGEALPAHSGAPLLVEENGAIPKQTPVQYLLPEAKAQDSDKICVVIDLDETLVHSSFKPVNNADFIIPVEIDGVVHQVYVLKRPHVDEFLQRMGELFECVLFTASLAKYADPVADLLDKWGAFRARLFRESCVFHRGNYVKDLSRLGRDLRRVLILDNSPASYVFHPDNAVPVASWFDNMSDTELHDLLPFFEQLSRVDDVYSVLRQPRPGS

[2] = reduction of Shn3 3'UTR-driven luciferase in osteoblasts – cell-based, Clone20 osteoblasts, firefly luciferase, cherry-picked, dose response (AID 624132); assay type: functional;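 further: firefly luciferase luminescence from reporter carrying the Shn3 3'UTR in osteoblasts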
[3] = loss of viability in HepG2 cells – cell-based, CellTiter-Glo, cherry-picked, cytotoxicity control for Shn3 inhibitor project, dose response (AID 624134); assay type: functional
[4] = non-specific 3'UTR reporter inhibition in Clone20-Shn3RL – cell-based, Renilla luciferase, cherry-picked, counter-screen for Shn3 inhibitor project, dose response (AID 624133); assay type: functional
[5] = activation of miR-122 Renilla sensor silencing – cell-based, Huh7 psiCHECK-miR122, Renilla luciferase, cherry-picked, dose response (AID 651956); assay type: functional;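 further: huh7 hepatoma cells stably carrying a psiCHECK-2 miR-122 sensor plasmid; renilla luciferase signal reporting endogenous miR-122 activity after 48 h compound exposure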
[6] = NIH-3T3 fibroblast cytotoxicity, dose response, cytotoxicity control, cell-based, fluorescence, Alamar Blue, secondary assay (AID 2327); assay type: functional;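 further: NIH-3T3 mouse fibroblasts cultured with fluconazole at 8 µg/mL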
[7] = fluconazole-exposed Candida albicans growth modulators – fluorescence, retest, confirmation (AID 2467); assay type: functional, cell-based
[8] = target: T2, High affinity choline transporter 1 (Homo sapiens, UniProt Q9GZV3); experiment: human choline transporter blockers, potency – cell-based, 5-point CRC, membrane potential dye, dose response (AID 504840); assay type: functional
T2 sequence (Q9GZV3 whole entry): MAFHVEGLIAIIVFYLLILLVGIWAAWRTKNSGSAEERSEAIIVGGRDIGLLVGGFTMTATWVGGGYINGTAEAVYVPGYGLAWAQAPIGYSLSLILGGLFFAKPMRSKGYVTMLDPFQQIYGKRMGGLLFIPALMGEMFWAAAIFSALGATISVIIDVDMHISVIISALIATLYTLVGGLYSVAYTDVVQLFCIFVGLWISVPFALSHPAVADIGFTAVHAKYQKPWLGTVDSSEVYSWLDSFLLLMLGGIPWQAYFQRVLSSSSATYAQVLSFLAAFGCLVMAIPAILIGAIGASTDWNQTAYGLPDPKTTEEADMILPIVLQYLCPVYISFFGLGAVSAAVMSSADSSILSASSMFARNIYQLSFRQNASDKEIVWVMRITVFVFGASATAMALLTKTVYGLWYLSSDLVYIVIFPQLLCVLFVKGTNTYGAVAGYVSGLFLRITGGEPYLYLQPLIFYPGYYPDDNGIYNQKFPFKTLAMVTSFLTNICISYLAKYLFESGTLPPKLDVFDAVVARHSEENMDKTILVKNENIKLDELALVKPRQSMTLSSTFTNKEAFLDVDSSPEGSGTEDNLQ

[9] = viability of HCT116 lacking mutant beta-catenin – cell-based, human colon tumor, dose response (AID 1045); assay type: functional;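 further: HCT116 colon tumor cells with beta catenin knocked out; cells exposed to compound for 60 hours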
[10] = viability of PTEN-deleted HCT116 cells – cell-based, HCT116 PTEN knockout, dose response (AID 1047); assay type: functional;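 further: HCT116 colon tumor cells with PTEN knocked out; cells exposed to compound for 60 hours before readout; potency for loss of cell viability measured by luminescence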
[11] = target: T3, Corticotropin-releasing factor receptor 2/Corticotropin-releasing factor-binding protein (Homo sapiens, UniProt P24387+Q13324); experiment: activators of CRF receptor 2 with binding protein – uHTS hits, confirmation (AID 602473); assay type: functional; details: read-out: EC50_Mean
T3 sequence (Q13324 whole entry): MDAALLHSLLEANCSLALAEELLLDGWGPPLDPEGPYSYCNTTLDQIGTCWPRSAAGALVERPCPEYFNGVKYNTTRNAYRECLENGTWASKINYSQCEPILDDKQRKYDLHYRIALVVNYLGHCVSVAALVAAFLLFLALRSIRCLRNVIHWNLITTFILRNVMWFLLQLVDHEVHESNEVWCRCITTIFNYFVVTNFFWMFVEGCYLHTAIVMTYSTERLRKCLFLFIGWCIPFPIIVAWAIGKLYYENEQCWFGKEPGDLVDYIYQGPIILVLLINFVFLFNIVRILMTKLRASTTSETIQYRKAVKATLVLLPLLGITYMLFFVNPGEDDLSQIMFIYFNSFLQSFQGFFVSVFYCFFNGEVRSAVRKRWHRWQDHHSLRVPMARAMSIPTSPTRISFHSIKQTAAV
T3 sequence (P24387 whole entry): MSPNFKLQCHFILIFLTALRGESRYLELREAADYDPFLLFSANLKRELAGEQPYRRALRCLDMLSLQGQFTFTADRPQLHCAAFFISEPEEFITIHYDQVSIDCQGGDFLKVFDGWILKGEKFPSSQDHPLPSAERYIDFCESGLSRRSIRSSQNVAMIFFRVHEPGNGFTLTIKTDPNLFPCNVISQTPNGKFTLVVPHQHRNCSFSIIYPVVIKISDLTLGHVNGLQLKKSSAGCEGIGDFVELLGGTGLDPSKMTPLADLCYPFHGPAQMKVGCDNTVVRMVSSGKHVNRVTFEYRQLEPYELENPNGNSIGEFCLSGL

[12] = target: T3, Corticotropin-releasing factor receptor 2/Corticotropin-releasing factor-binding protein; experiment: Dose Response confirmation of uHTS hits for small molecule antagonists of the CRF-binding protein and CRF-R2 receptor complex.; assay type: functional; details: read-out: IC50_Mean
[13] = Trypanosoma cruzi growth suppression in host cells – NIH3T3 host cells, beta-gal luminescence, confirmation (AID 2044); assay type: functional, cell-based;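 further: intracellular parasites grown in NIH/3T3 mouse fibroblasts as host cells; luminescent beta-galactosidase reporter signal from transgenic T. cruzi replicating inside host cells; inhibitors lower the luminescence signal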
[14] = NIH3T3 cell viability loss – ATP luminescence, mouse fibroblasts, counter-screen, dose response (AID 2010); assay type: functional, cell-based;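 further: cells exposed to compound for about 90 hours before reading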
Cytochrome P450 2C19 = Cytochrome P450 2C19 (Homo sapiens, UniProt P33261); experiment: Cytochrome panel assay with activity outcomes. Panel member name: p450-cyp2c19 Compounds with AC50 equal or less than 10 uM are considered active; assay type: functional; details: read-out: AC50
Sequence of Cytochrome P450 2C19 (P33261 whole entry): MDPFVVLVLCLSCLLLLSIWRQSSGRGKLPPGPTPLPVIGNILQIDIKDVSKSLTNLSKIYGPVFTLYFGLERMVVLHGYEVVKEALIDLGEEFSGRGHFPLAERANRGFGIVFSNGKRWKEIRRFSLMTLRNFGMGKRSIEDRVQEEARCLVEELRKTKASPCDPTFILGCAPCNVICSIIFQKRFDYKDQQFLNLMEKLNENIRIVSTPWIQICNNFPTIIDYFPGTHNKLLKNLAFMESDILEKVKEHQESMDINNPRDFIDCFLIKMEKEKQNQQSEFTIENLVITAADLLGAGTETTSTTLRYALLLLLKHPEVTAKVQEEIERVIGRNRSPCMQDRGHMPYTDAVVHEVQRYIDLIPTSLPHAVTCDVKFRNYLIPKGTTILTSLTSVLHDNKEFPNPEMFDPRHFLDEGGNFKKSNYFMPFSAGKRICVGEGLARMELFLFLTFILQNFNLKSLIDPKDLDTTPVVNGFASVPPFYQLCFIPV

Cytochrome P450 2D6 = Cytochrome P450 2D6 (Homo sapiens, UniProt P10635);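 further: CYP2D6 member of a cytochrome P450 panel assay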
Sequence of Cytochrome P450 2D6 (P10635 whole entry): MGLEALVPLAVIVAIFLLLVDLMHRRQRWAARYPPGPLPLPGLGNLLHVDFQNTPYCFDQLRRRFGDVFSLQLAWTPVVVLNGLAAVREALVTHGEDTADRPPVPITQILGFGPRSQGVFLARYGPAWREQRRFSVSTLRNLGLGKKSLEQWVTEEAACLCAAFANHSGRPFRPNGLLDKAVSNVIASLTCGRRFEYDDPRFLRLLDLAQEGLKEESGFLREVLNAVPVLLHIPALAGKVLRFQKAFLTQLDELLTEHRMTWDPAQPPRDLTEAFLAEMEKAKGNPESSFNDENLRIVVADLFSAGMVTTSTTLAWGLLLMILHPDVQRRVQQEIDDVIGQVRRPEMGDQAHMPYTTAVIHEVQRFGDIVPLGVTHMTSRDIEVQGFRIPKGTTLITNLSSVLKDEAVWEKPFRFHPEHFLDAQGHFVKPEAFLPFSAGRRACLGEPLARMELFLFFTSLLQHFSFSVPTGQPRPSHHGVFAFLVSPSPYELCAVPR

Cytochrome P450 2C9 = Cytochrome P450 2C9 (Homo sapiens, UniProt P11712)
Sequence of Cytochrome P450 2C9 (P11712 whole entry): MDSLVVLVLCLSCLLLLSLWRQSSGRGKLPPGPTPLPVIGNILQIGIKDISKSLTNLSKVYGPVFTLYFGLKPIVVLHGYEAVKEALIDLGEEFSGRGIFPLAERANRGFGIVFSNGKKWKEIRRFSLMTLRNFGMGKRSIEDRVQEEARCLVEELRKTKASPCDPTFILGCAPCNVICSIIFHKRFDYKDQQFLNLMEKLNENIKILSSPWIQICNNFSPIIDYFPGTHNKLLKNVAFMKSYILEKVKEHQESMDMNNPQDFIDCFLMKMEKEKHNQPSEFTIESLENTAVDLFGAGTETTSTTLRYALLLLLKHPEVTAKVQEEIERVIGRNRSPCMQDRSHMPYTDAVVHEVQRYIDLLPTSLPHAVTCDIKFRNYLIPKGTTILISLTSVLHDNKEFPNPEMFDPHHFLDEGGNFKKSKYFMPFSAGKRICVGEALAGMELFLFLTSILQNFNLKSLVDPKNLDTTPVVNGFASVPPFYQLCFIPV

Cytochrome P450 3A4 = Cytochrome P450 3A4 (Homo sapiens, UniProt P08684);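 further: CYP3A4 tested as one member of a cytochrome P450 panel screen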
Sequence of Cytochrome P450 3A4 (P08684 whole entry): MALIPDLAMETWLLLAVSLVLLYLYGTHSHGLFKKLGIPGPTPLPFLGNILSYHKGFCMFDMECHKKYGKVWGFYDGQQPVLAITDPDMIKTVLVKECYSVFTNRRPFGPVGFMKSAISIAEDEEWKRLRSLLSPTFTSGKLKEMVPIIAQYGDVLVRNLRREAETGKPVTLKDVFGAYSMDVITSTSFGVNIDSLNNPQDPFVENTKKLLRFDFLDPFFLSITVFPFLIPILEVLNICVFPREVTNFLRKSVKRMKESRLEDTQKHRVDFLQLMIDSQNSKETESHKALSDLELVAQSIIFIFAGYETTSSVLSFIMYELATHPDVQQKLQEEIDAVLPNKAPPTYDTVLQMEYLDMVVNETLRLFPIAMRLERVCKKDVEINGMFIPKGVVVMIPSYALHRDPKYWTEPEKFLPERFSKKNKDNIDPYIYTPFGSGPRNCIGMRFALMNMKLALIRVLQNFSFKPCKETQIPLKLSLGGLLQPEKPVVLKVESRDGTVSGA

SMILES: Cc1ccn2c(=O)nc(SCC(=O)NCc3ccco3)nc2c1
- IC50 [1]: 10.8 µM (active)

SMILES: O=C(NNC(=O)C1CCN(S(=O)(=O)c2ccc(Cl)cc2)CC1)c1ccccc1O
- AC50 [2]: 18.5 µM (active)
- AC50 [3]: 63.1 µM (active)
- AC50 [4]: 6.86 µM (active)

SMILES: Cc1ccc(-c2ccc3c(c2)O[C@H](CN(C)C(=O)CC2CC2)[C@H](C)CN([C@H](C)CO)S3(=O)=O)cc1
- AC50 [5]: 10.7 µM (active)

SMILES: Cc1ccc(S(=O)(=O)N2C[C@@H]3CCCC[C@@H]3[C@@H](C)[C@H]2c2cn(Cc3ccccc3)c3ncccc23)cc1
- AC50 [2]: 1.92 µM (active)
- AC50 [3]: 2.47 µM (active)
- AC50 [4]: 4.12 µM (active)

SMILES: Cc1ccc(C2CC2C(=O)NN=C(S)Nc2cccc(Cl)c2)cc1 (stereo not drawn)
- EC50 [6]: > 160 µM (inactive)
- EC50 [7]: > 38 µM (not active)
- IC50 [8]: 15.8 µM (active)

SMILES: COc1ccc(NC(=O)C(C)Sc2nnc3c4c(nc(-c5ccc(OC)cc5)n23)CC(C)(C)OC4)cc1 (stereo not drawn)
- EC50 [9]: 58.9 µM (active)
- EC50 [10]: 27 µM (active)

SMILES: CCOc1ccc(C(=O)OCC(=O)Nc2cccnc2Cl)cc1OCC
- EC50 [11]: > 53 µM (inactive)
- IC50 [12]: > 47.1 µM (inactive)

SMILES: CCOC(=O)N1CCN(C(=O)c2oc3ccc(S(=O)(=O)N4CCCCCC4)cc3c2C)CC1
- IC50 [8]: 13.2 µM (active)
- EC50 [13]: 2.02 µM (active)
- EC50 [14]: > 60 µM (not active)

SMILES: CN1C(=O)c2cc(NS(=O)(=O)c3ccc(Cl)cc3)ccc2OC[C@H]2O[C@H](CC(=O)N3CCc4ccccc4C3)CC[C@@H]21
- AC50 [5]: 14.8 µM (active)

SMILES: O=C(c1cccc(NS(=O)(=O)c2ccc(F)c(F)c2)c1)N1CCN(C(c2ccccc2)c2ccccc2)CC1
- EC50 [11]: > 53 µM (inactive)
- IC50 [12]: > 47.1 µM (inactive)

SMILES: COc1cccc(-c2ccc3c(c2)O[C@H](CN(C)C(=O)C2CCOCC2)[C@H](C)CN([C@@H](C)CO)S3(=O)=O)c1
- AC50 [5]: 6.42 µM (active)

SMILES: O=C(Nc1ccccc1C(F)(F)F)NC1(C(=O)N2CCOCC2)CCCCC1
- IC50 [1]: 4.66 µM (active)

SMILES: COc1ccccc1N1CCN(C(=O)C2CCCN(S(=O)(=O)c3ccc4c(c3)CCCN4C(C)=O)C2)CC1 (stereo not drawn)
- AC50 [2]: 2.68 µM (active)
- AC50 [3]: 50.9 µM (active)
- AC50 [4]: 1.15 µM (active)

SMILES: CC(C)COc1nc2ccccc2nc1N1CCN(C)CC1
- IC50 [8]: 15.1 µM (active)

SMILES: C[C@@H]1CN([C@H](C)CO)S(=O)(=O)c2ccc(C3=CCCCC3)cc2O[C@@H]1CN(C)C(=O)Cc1ccncc1
- AC50 [5]: 8.26 µM (active)

SMILES: O=[N+]([O-])c1ccc2nc(-c3ccccc3)n(OCc3ccc(Cl)cc3)c2c1
- IC50 [1]: 10.1 µM (active)

SMILES: CC(C)(C)NC(=O)C(c1ccc(O)cc1)N(Cc1ccc2c(c1)OCO2)C(=O)CCl (stereo not drawn)
- EC50 [11]: > 53 µM (inactive)
- IC50 [12]: > 47.1 µM (inactive)

SMILES: CC(C)C[C@@H](CN1CCCC1CN1C(=S)NC[C@@H]1Cc1ccc(O)cc1)N1C[C@H](Cc2ccc(O)cc2)N(CC2CCCCCC2)C1=S (stereo partly drawn)
- AC50 [2]: 18.8 µM (active)
- AC50 [3]: 22.7 µM (active)
- AC50 [4]: 16.9 µM (active)

SMILES: O=C(CNC(=O)c1ccccc1)NCC(=O)OCc1ccc(Cl)cc1
- AC50 (Cytochrome P450 2C19): 20 µM (inconclusive)
- AC50 (Cytochrome P450 2D6): 20 µM (inconclusive)
- AC50 (Cytochrome P450 2C9): 0.1 µM (inconclusive)
- AC50 (Cytochrome P450 3A4): 14.1 µM (inconclusive)
